Measured values: ChEMBL document CHEMBL2094260, “Malaria Box Tuberculosis Screening Data”
In brackets after ≈: the same amount, converted by molar mass.

Tested on: not listed separately
Test: MMV: Cytotoxicity CRC and LD50 against HepG2
Type: toxicity, cell-based
Settings: human, HepG2 cells; read-out: LD50 (the source's name)

Compared with `CN1CCN(c2ccc(Nc3c4ccccc4nc4ccccc34)cc2)CC1`, `Oc1ccc2ccccc2c1CNc1nc2ccccc2[nH]1` is 22-fold higher in CC50: 0.654 µM for the first, 14.1 µM for the second.

Compared with `CC1CCN(Cc2ccc(NC(=O)c3cc4ccc5cccnc5c4[nH]3)cc2)CC1`, `Cc1c(C)n(Cc2ccc(F)cc2)c2ccc(C(=O)NCc3ccco3)cc12` is higher in CC50: 4.42 µM for the first, > 100 µM for the second.

For `COc1ccc(-c2cc(=O)oc3c4c(ccc23)OCN(Cc2ccc(F)cc2)C4)cc1`, the CC50 was 40.5 µM.

Tested on: Mycobacterium tuberculosis
Test: MMV: CRC and MIC90 against Mtb (non replicating)
Type: functional
Settings: not given

Going from `Cc1ccc(Nc2nc(-c3ccccn3)cs2)cc1` to `O=C(Nc1nc(-c2ccccn2)cs1)c1ccccc1Br`, the MIC90 falls from > 100 µM to 58.2 µM (≈ 21 µg/mL).

Going from `CN1CCN(c2ccc(Nc3c4ccccc4nc4ccccc34)cc2)CC1` to `CC1CCN(Cc2ccc(NC(=O)c3cc4ccc5cccnc5c4[nH]3)cc2)CC1`, the MIC90 rises from 27.7 µM (≈ 10.2 µg/mL) to > 100 µM.

In the case of `COc1ccc(-c2cc(=O)oc3c4c(ccc23)OCN(Cc2ccc(F)cc2)C4)cc1`, the MIC90 is reported as > 100 µM.

Tested on: Mycobacterium tuberculosis
Test: MMV: Screen against Mtb, single point, non replicating, at 25uM
Type: functional
Settings: not given

Going from `Cc1ccc(Nc2nc(-c3ccccn3)cs2)cc1` to `O=C(Nc1nc(-c2ccccn2)cs1)c1ccccc1Br`, the inhibition at 25 µM rises from 23% to 84.5%.

Going from `CN1CCN(c2ccc(Nc3c4ccccc4nc4ccccc34)cc2)CC1` to `Oc1ccc2ccccc2c1CNc1nc2ccccc2[nH]1`, the inhibition at 25 µM falls from 44.1% to 35.9%.

First: CC1CCN(Cc2ccc(NC(=O)c3cc4ccc5cccnc5c4[nH]3)cc2)CC1
Second: Cc1c(C)n(Cc2ccc(F)cc2)c2ccc(C(=O)NCc3ccco3)cc12
The inhibition at 25 µM of the first is higher: 13.8% for the first, 11.7% for the second.

Compared with `COc1ccc(-c2cc(=O)oc3c4c(ccc23)OCN(Cc2ccc(F)cc2)C4)cc1`, `COc1ccc(Br)cc1C1Nc2ccc3ccccc3c2C2=C1C(=O)CC(c1ccccc1)C2` (centres undefined) is lower in inhibition at 25 µM: 22.3% for the first, 20.9% for the second.

Going from `O=c1cc(NC2CCN(CCCc3ccccc3)CC2)c2cc(Cl)ccc2o1` to `CCOc1ccccc1NC(=O)CN1CCN(C(=O)c2ccco2)CC1`, the inhibition at 25 µM falls from 14.3% to -0.186%.

Going from `COC(=O)c1ccc(C2C3=C(O)CC(c4ccc(F)cc4)CC3=Nc3ccccc3N2C(=O)c2ccccc2)cc1` (centres undefined) to `CC(C)(C)c1ccc(C2CC3=Nc4ccccc4N(C(=O)c4ccccc4Cl)C(c4ccc(F)cc4)C3=C(O)C2)cc1` (centres undefined), the inhibition at 25 µM falls from 18.9% to 14.4%.

Compared with `O=C(Nc1ccc(Cl)cc1C(=O)Nc1ccncc1)c1ccc(Cl)cc1Cl`, `O=C(NCC1Cc2cccc(-c3ccncc3)c2O1)c1csc2c1CCCC2` (centres undefined) is lower in inhibition at 25 µM: 27.7% for the first, 5.92% for the second.

First: CCOC(=O)c1c(C)n(-c2ccccc2)c2ccc(OC(=O)c3cc(OC)c(OC)c(OC)c3)cc12
Second: CCOc1c(Br)cc(C2C(C(=O)OC)=CN(C)C=C2C(=O)OC)cc1OC
The inhibition at 25 µM of the first is lower: 6.46% for the first, 14.1% for the second.

Compared with `CCCn1c(=N)c(C(=O)NC2CCCCC2)cc2c(=O)n3cccc(C)c3nc21`, `Cc1cc(N2CCN(C3CCCC3)CC2)n2c(nc3ccccc32)c1C#N` is higher in inhibition at 25 µM: 2.38% for the first, 11.5% for the second.

Compared with `COc1ccc(C=C2SC(Nc3ccc(F)cc3)=NC2=O)c(OC)c1`, `CCc1ccc(Nc2cc(C)c3ccc(O)cc3n2)cc1` is higher in inhibition at 25 µM: 7.53% for the first, 17.3% for the second.

First: COc1ccccc1N1CCN(C(CNS(=O)(=O)c2ccc(Cl)cc2)c2cccnc2)CC1 (centres undefined)
Second: CCOc1ccc(C2N(C)c3ccccc3N2C)cc1
The inhibition at 25 µM of the first is higher: 15.2% for the first, 11.7% for the second.

Compared with `Cc1ccc(N2C(=O)C3C(C2=O)C2(c4ccccc4)C(=O)C3(c3ccccc3)C(c3ccccc3)=C2c2ccccc2)cc1` (centres undefined), `OC1=C2C(=Nc3ccccc3SC2c2ccc(Br)cc2)c2ccccc21` (centres undefined) is lower in inhibition at 25 µM: 4.88% for the first, 0.604% for the second.

Going from `N=c1c2ccccc2nnn1-c1cccc(C(F)(F)F)c1` to `COc1cccc(NC(=O)[C@H](C(C)C)n2c(=O)[nH]c3ccccc3c2=O)c1`, the inhibition at 25 µM rises from -4.19% to 5.22%.

Going from `COc1ccc(C(=O)C(CCC(CNC(C)(C)C)C(=O)c2ccc(OC)cc2)CNC(C)(C)C)cc1` (centres undefined) to `CCN(CC)CCCNc1ccnc2cc3ccccc3cc12`, the inhibition at 25 µM falls from 21% to 14.6%.

For `CCN(CC)CCn1c(=N)n(CC(O)c2ccc(Cl)c(Cl)c2)c2ccccc21` (centres undefined), the inhibition at 25 µM was 10.1%.

Tested on: Mycobacterium tuberculosis
Test: MMV: Screen against Mtb, single point, replicating, at 25uM
Type: functional
Settings: not given

Going from `Cc1ccc(Nc2nc(-c3ccccn3)cs2)cc1` to `O=C(Nc1nc(-c2ccccn2)cs1)c1ccccc1Br`, the inhibition at 25 µM rises from 59.3% to 95.3%.

Compared with `CN1CCN(c2ccc(Nc3c4ccccc4nc4ccccc34)cc2)CC1`, `Oc1ccc2ccccc2c1CNc1nc2ccccc2[nH]1` is higher in inhibition at 25 µM: 63.8% for the first, 76.1% for the second.

Going from `CC1CCN(Cc2ccc(NC(=O)c3cc4ccc5cccnc5c4[nH]3)cc2)CC1` to `Cc1c(C)n(Cc2ccc(F)cc2)c2ccc(C(=O)NCc3ccco3)cc12`, the inhibition at 25 µM falls from 75.1% to 69.5%.

Going from `COc1ccc(-c2cc(=O)oc3c4c(ccc23)OCN(Cc2ccc(F)cc2)C4)cc1` to `COc1ccc(Br)cc1C1Nc2ccc3ccccc3c2C2=C1C(=O)CC(c1ccccc1)C2` (centres undefined), the inhibition at 25 µM falls from 90.5% to 16.2%.

Going from `O=c1cc(NC2CCN(CCCc3ccccc3)CC2)c2cc(Cl)ccc2o1` to `CCOc1ccccc1NC(=O)CN1CCN(C(=O)c2ccco2)CC1`, the inhibition at 25 µM falls from 24.2% to 23.1%.

Going from `COC(=O)c1ccc(C2C3=C(O)CC(c4ccc(F)cc4)CC3=Nc3ccccc3N2C(=O)c2ccccc2)cc1` (centres undefined) to `CC(C)(C)c1ccc(C2CC3=Nc4ccccc4N(C(=O)c4ccccc4Cl)C(c4ccc(F)cc4)C3=C(O)C2)cc1` (centres undefined), the inhibition at 25 µM falls from 28.3% to 1.49%.

Compared with `O=C(Nc1ccc(Cl)cc1C(=O)Nc1ccncc1)c1ccc(Cl)cc1Cl`, `O=C(NCC1Cc2cccc(-c3ccncc3)c2O1)c1csc2c1CCCC2` (centres undefined) is lower in inhibition at 25 µM: 30% for the first, 14.2% for the second.

First: CCOC(=O)c1c(C)n(-c2ccccc2)c2ccc(OC(=O)c3cc(OC)c(OC)c(OC)c3)cc12
Second: CCOc1c(Br)cc(C2C(C(=O)OC)=CN(C)C=C2C(=O)OC)cc1OC
The inhibition at 25 µM of the first is higher: 22.2% for the first, 7.76% for the second.

Compared with `CCCn1c(=N)c(C(=O)NC2CCCCC2)cc2c(=O)n3cccc(C)c3nc21`, `Cc1cc(N2CCN(C3CCCC3)CC2)n2c(nc3ccccc32)c1C#N` is higher in inhibition at 25 µM: -4.62% for the first, 7.81% for the second.

First: COc1ccc(C=C2SC(Nc3ccc(F)cc3)=NC2=O)c(OC)c1
Second: CCc1ccc(Nc2cc(C)c3ccc(O)cc3n2)cc1
The inhibition at 25 µM of the first is higher: 23.3% for the first, 4.16% for the second.

First: COc1ccccc1N1CCN(C(CNS(=O)(=O)c2ccc(Cl)cc2)c2cccnc2)CC1 (centres undefined)
Second: CCOc1ccc(C2N(C)c3ccccc3N2C)cc1
The inhibition at 25 µM of the first is lower: 4.01% for the first, 8.11% for the second.

Going from `Cc1ccc(N2C(=O)C3C(C2=O)C2(c4ccccc4)C(=O)C3(c3ccccc3)C(c3ccccc3)=C2c2ccccc2)cc1` (centres undefined) to `OC1=C2C(=Nc3ccccc3SC2c2ccc(Br)cc2)c2ccccc21` (centres undefined), the inhibition at 25 µM falls from 9.93% to -4.78%.

First: N=c1c2ccccc2nnn1-c1cccc(C(F)(F)F)c1
Second: COc1cccc(NC(=O)[C@H](C(C)C)n2c(=O)[nH]c3ccccc3c2=O)c1
The inhibition at 25 µM of the first is lower: 7.29% for the first, 7.35% for the second.

Going from `COc1ccc(C(=O)C(CCC(CNC(C)(C)C)C(=O)c2ccc(OC)cc2)CNC(C)(C)C)cc1` (centres undefined) to `CCN(CC)CCCNc1ccnc2cc3ccccc3cc12`, the inhibition at 25 µM falls from 10.9% to 8.7%.

With `CCN(CC)CCn1c(=N)n(CC(O)c2ccc(Cl)c(Cl)c2)c2ccccc21` (centres undefined) the inhibition at 25 µM was 36.2%.

Tested on: Mycobacterium tuberculosis
Test: MMV: CRC and MIC90 against Mtb (replicating)
Type: functional
Settings: not given

`Cc1ccc(Nc2nc(-c3ccccn3)cs2)cc1` and `O=C(Nc1nc(-c2ccccn2)cs1)c1ccccc1Br` are within 1.5-fold of each other in MIC90: 50.7 µM (≈ 13.6 µg/mL) for the first, 48.7 µM (≈ 17.5 µg/mL) for the second.

First: CN1CCN(c2ccc(Nc3c4ccccc4nc4ccccc34)cc2)CC1
Second: Oc1ccc2ccccc2c1CNc1nc2ccccc2[nH]1
The MIC90 of the first is 1.6-fold lower: 45.1 µM (≈ 16.6 µg/mL) for the first, 74.1 µM (≈ 21.4 µg/mL) for the second.

`CC1CCN(Cc2ccc(NC(=O)c3cc4ccc5cccnc5c4[nH]3)cc2)CC1` and `COc1ccc(-c2cc(=O)oc3c4c(ccc23)OCN(Cc2ccc(F)cc2)C4)cc1` are within 1.5-fold of each other in MIC90: 33.3 µM (≈ 13.3 µg/mL) for the first, 37.5 µM (≈ 15.7 µg/mL) for the second.
